The record followed here is PMC6677754, “In silico design and optimization of selective membranolytic anticancer peptides” (Scientific Reports, 2019).

Data set [1] relates to A549 lung adenocarcinoma cell line. Briefly: Cell viability assay (MTT). Format: cell-based, human. The conditions noted are these: Table S2; MTT, 24 h; mean ± sd; N = 2 independent measurements with six technical replicates each (Figs S6-S8); read-out: A549 EC50 /µM. In short, it runs like this: (§1)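 Viability by MTT: 10^4 cells/well exposed 24 h to 2-fold peptide dilutions from 100 μM in DMEM, then 1 h with 0.5 mg mL−1 MTT; absorbance at 540 nm relative to peptide-free medium as 100% survival. EC50 from a 3-parameter log-logistic fit.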

In data set [2] the test system is MCF7 breast adenocarcinoma cell line. Nature of the data set: Cell viability assay (MTT). Type of data set: cell-based, human. The conditions noted are these: Table S2, 24 h, mean ± sd, N = 2 independent measurements with six technical replicates each (Figs S6-S8). In short, it runs like this:
as §1

In data set [3] the test system is noncancer HDMEC primary cells (human dermal microvascular endothelial cells). Briefly: Cell viability assay (MTT). Format: cell-based. The conditions noted are these: Table S2; noncancer primary cells; MTT, 24 h; mean ± sd; N = 2 independent measurements with six technical replicates each (Figs S6-S8). In short, it runs like this:
as §1

For another data set, the system named is human erythrocytes. Nature of the data set: Hemolysis assay. The conditions noted are these: red cells of human, 1 h. Type of data set: cell-based. The gist of the method:
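Washed human erythrocytes (5% v/v in PBS) were mixed with peptide plated as a 200–6.25 μM series, in triplicate, for 1 h at 37 °C. Released haemoglobin in the supernatant was read at 540 nm, scaled to 0.1% Triton X-100 (100%) and PBS (0%). HC50 came from a 3-parameter log-logistic fit.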

Peptide text beside a SMILES is read from it.

Consider `CC[C@H](C)[C@H](NC(=O)[C@H](CC(C)C)NC(=O)[C@@H](N)CCCNC(=N)N)C(=O)N[C@@H](CCCCN)C(=O)N[C@@H](CCCNC(=N)N)C(=O)N[C@@H](CC(C)C)C(=O)N[C@@H](CCCCN)C(=O)N[C@H](C(=O)N[C@@H](Cc1ccccc1)C(=O)N[C@H](C(=O)N[C@@H](CCCNC(=N)N)C(=O)N[C@@H](CCCCN)C(=O)N[C@H](C(=O)N[C@@H](Cc1c[nH]c2ccccc12)C(=O)N[C@@H](CCCCN)C(=O)N[C@@H](Cc1c[nH]c2ccccc12)C(=O)N[C@H](C(=O)NCC(=O)N[C@@H](Cc1c[nH]cn1)C(=O)N[C@@H](Cc1ccccc1)C(N)=O)C(C)C)[C@@H](C)O)C(C)C)[C@@H](C)O` [Off7] (H-RLIKRLKTFVRKTWKWVGHF-NH2), for which the EC50 came out at 52 ± 2 µM in data set [1], 39 ± 3 µM in data set [2] and 12 ± 3 µM in data set [3]. The “Eryhtr. HC50 /µM” value in the data set with human erythrocytes came out at 95 ± 7 µM.

On to `CC(C)C[C@H](NC(=O)[C@H](CCCNC(=N)N)NC(=O)CNC(=O)[C@H](CC(C)C)NC(=O)[C@@H](NC(=O)[C@H](CCCCN)NC(=O)[C@H](Cc1c[nH]c2ccccc12)NC(=O)[C@H](Cc1ccc(O)cc1)NC(=O)[C@H](CCCNC(=N)N)NC(=O)[C@H](CCCCN)NC(=O)[C@H](Cc1ccc(O)cc1)NC(=O)[C@@H](NC(=O)[C@@H](NC(=O)[C@H](CCCCN)NC(=O)[C@H](Cc1ccccc1)NC(=O)[C@H](Cc1c[nH]cn1)NC(=O)[C@H](CCCCN)NC(=O)[C@H](CC(C)C)NC(=O)[C@H](Cc1ccccc1)NC(=O)[C@@H](N)CCCNC(=N)N)[C@@H](C)O)C(C)C)C(C)C)C(N)=O` [Off8] (H-RFLKHFKTVYKRYWKVLGRL-NH2), for which the EC50 was found to be 17 ± 4 µM in data set [1], 11.9 ± 0.1 µM in data set [2] and 14.3 ± 0.2 µM in data set [3]. Moreover, the “Eryhtr. HC50 /µM” value in the data set with human erythrocytes was found to be 144 ± 4 µM.

As to `CC[C@H](C)[C@H](NC(=O)[C@H](CC(C)C)NC(=O)[C@@H](N)CCCCN)C(=O)N[C@@H](Cc1c[nH]cn1)C(=O)N[C@@H](CCCNC(=N)N)C(=O)N[C@@H](CC(C)C)C(=O)N[C@@H](CCCCN)C(=O)N[C@H](C(=O)N[C@H](C(=O)N[C@@H](Cc1ccccc1)C(=O)N[C@@H](CCCCN)C(=O)N[C@@H](CCCCN)C(=O)N[C@H](C(=O)N[C@@H](Cc1c[nH]c2ccccc12)C(=O)N[C@@H](Cc1c[nH]cn1)C(=O)N[C@@H](Cc1ccccc1)C(=O)N[C@@H](CC(C)C)C(=O)NCC(=O)N[C@@H](Cc1c[nH]cn1)C(=O)N[C@@H](CC(C)C)C(N)=O)C(C)C)C(C)C)[C@@H](C)O` [Off9] (H-KLIHRLKTVFKKVWHFLGHL-NH2), the EC50 was found to be 22 ± 4 µM in data set [1], 18.9 ± 0.2 µM in data set [2] and 22 ± 3 µM in data set [3]. Besides, in the data set on human erythrocytes, the “Eryhtr. HC50 /µM” value was 41 ± 3 µM.

For `CC[C@H](C)[C@H](NC(=O)[C@H](CCCCN)NC(=O)[C@@H]1CCCN1C(=O)[C@H](Cc1c[nH]c2ccccc12)NC(=O)[C@@H](NC(=O)[C@H](CCC(=O)O)NC(=O)[C@H](Cc1c[nH]c2ccccc12)NC(=O)[C@H](Cc1ccccc1)NC(=O)[C@H](CCCCN)NC(=O)[C@H](CCCCN)NC(=O)[C@@H](NC(=O)[C@@H](NC(=O)[C@@H](NC(=O)[C@H](CCCCN)NC(=O)[C@H](CC(C)C)NC(=O)[C@H](CCC(N)=O)NC(=O)[C@H](CCCNC(=N)N)NC(=O)[C@@H](NC(=O)[C@H](CCCNC(=N)N)NC(=O)[C@@H](N)Cc1c[nH]cn1)[C@@H](C)CC)[C@@H](C)O)[C@@H](C)O)[C@@H](C)CC)[C@@H](C)CC)C(N)=O` [Off10] (H-HRIRQLKTTIKKFWEIWPKI-NH2), the EC50 was determined as 83 ± 11 µM in data set [1], 56 ± 5 µM in data set [2] and 58.1 ± 0.3 µM in data set [3]. In the data set with human erythrocytes, the “Eryhtr. HC50 /µM” value is more than 200 µM.
